According to patent publication US20240343677A1, “L-ASPARTIC ACID N, N-DIACETIC ACID TETRASODIUM SALT AND PREPARATION METHOD THEREFOR” (HEFEI ALL-PLUS ENVIRONMENTAL TECNOLOGY CO., LTD., priority 2021, published 2024):

Tests used:
[1] = Efficiency of removing calcium carbonate water scales; settings: compared with other amino polymeric chelating agents (FIG. 6)
From the text: 5. The ASDA can also be used for preventing water scale and precipitation and removing water scale.

[2] = Experimental: FIG. 4 is a thermogravimetric analysis graph of the ASDA prepared in Example 1 of the present disclosure;
3. Thermal stability and application environment adaptability of the L-aspartic acid N,N-diacetic acid tetrasodium salt (ASDA) prepared by the preparation method provided in Example 1 were detected. […] The thermal stability of ASDA-Na4 powder was measured by thermogravimetric analysis (TGA) and differential scanning calorimetry (DSC).

[3] = Chelating ability for metal ions compared with other chelating agents; type: physicochemical; settings: same condition as other chelating agents (FIG. 5)
[4] = Biodegradability of ASDA in sewage according to OECD 301B standard; settings: 28 days, third-party detection, ASDA of Example 1
Experimental: FIG. 1 is a graph of biodegradability detection results of ASDA prepared in Example 1 of the present disclosure tested in a stable sewage environment;
1. […] The detection was carried out by a third-party detection mechanism.

[5] = Solubility in water of different pH values and in concentrated sodium hydroxide solution; type: physicochemical; settings: ASDA of Example 1
From the text: It can also correspondingly reduce transportation and warehousing costs, and alleviate the problem of high transportation and warehousing costs.

## O=C([O-])C[C@@H](C(=O)[O-])N(CC(=O)[O-])CC(=O)[O-].[Na+].[Na+].[Na+].[Na+] [ASDA, L-aspartic acid N,N-diacetic acid tetrasodium salt]
[1]
  efficiency of removing CaCO3 scales: the best biodegradable chelate for removing CaCO3 scales
[2]; ASDA solid, all moisture lost at about 250° C., TGA
  moisture lost: about 4%
[2]; ASDA-Na4 powder, TGA/DSC
  temperature above which rapid decomposition begins: above 380 °C
[3]
  comprehensive performance in chelating metal ions: excellent
[4]
  28-day biodegradability: ≥ 60%
[5]; concentrated sodium hydroxide solution (FIG. 3)
  solubility under a strong alkali condition: high solubility
[5]; water, low pH (FIG. 2)
  solubility in low pH: high solubility

## O=C(O)CN(CCN(CC(=O)O)CC(=O)O)CC(=O)O [EDTA, ethylenediaminetetraacetic acid, reference compound]
[2]
  thermal stability (thermally more stable than ASDA): > 150 °C

## O=C(O)CN(CC(=O)O)CC(=O)O [NTA, nitrilotriacetic acid, reference compound]
[2]
  thermal stability (thermally more stable than ASDA): > 150 °C
